Laboratory results as given in patent US4937232A, “Inhibition of protein kinase C by long-chain bases” (priority 1988, dated 1990).
Where “and” joins values, the source holds several entries; their conditions need not be identical. Equal values may be shown once. Entries after “also recorded” stand apart in the source; their conditions may differ. Read-outs that look alike come from different tables or passages of the source.

Legend:
human neutrophils [1] = details: cited from earlier work
human neutrophils [2] = test: Oxygen consumption (oxidative burst) of human neutrophils; format: cell-based; details: for IC50: oxidative burst, PMA activation, read-out: Concentration required for 50% inhibition
Text: Human neutrophils were obtained by continuous flow leukapheresis from normal adults. Residual erythrocytes were removed by hypotonic lysis with a resulting purity of >95% neutrophils. Alternatively peripheral blood was obtained by phlebotomy and neutrophils were isolated by HESPAN (6% Hetastarch, 0.9% NaCl) sedimentaion of erythrocytes, centrifugation through lymphocyte separation medium (9.4% sodium diatrizoate, 6.2% Ficoll), and hypotonic lysis of residual erythrocytes. Isolated cells were resuspended in phosphate buffered saline (PBS)-glucose, containing 0.6 mM CaCl2, 2.6 mM KCl, 1.5 mM KH2 PO4, 0.5 mM MgCl2, 136 mM NaCl, 8 mM Na2 HPO4, 5.5 mM glucose.
Oxygen consumption was measured using a Clark-type electrode with YSI model 53 oxygen monitor. Assays were conducted at 37° C. with 6.5×10^6 cells per ml with a total volume of either 2.5 ml or 4 ml. Effectors were injected into the electrode chamber using a Hamilton syringe. Initial slopes after the addition of the stimuli were used for rate calculations. For activators with a lag prior to the onset of the oxidative burst, maximal rates following the lag were used.

HL-60 cells [3] = test: PMA-induced adherence (attachment) of HL-60 cells; format: cell-based, human
Experimental: (§1) Cells were centrifuged at 600 g for 3 min, and added at 1×10^5 cells per well in 12-well culture dishes. Medium, PMA, and long-chain bases (prepared as the 1:1 molar complex with fatty acid-free bovine serum albumin) at the indicated concentrations were added for a total volume of 2.0 ml. After the desired times, the cells in suspension were counted and checked for viability (trypan blue exclusion) with a hemacytometer. The attached cells were quantitated by measuring DNA content according to the method of West et al (Anal. Biochem., 147, 289-295, 1985) and by assaying for acid phosphatase according to the method of Schnyder (J. Exp. Med., 148, 434-445, 1978).

HL-60 cells [4] = test: Acid phosphatase activities of suspended and attached HL-60 cells; format: cell-based, human; details: 8 nM PMA, 0 μM sphinganine
Experimental: as §1

HL-60 cells [5] = test: Morphology and marker enzymes (ANA esterase, acid phosphatase) of HL-60 cells on day 3; format: cell-based, human; details: 8 nM PMA, 0 μM sphinganine, 3 days
Text: Expression of most other signs of HL-60 cell differentiation requires longer time periods after treatment with PMA. For these experiments, the cells were examined on day 3 for adherence and acid phosphatase activity (Table IV) and morphology and the marker enzymes alpha-naptholacetate (ANA) esterase and acid phosphatase (Table V).

human neutrophils [6] = test: [32P]-phosphate incorporation into TCA-precipitable material of neutrophils; format: cell-based; details: PMA (1 μM)
Experimental: Neutrophils (1.4×10^8 cells) were preincubated in with 0.5 mCi Na2 H^32 PO4 in buffer containing […] NaCl, 5.56 mM glucose, 10 mM Hepes, and 0.33 mM CaCl2 for a total of 1 hr at 37° C. in a shaking waterbath. Excess unbound counts were removed by centrifugation and resuspension, repeated five times. The cells were then divided into 4 treatment groups (see RESULTS below) containing approximately 3.5×10^7 cells each. All groups were incubated at 37° C. in a shaking waterbath for the same total time. Some samples were incubated 10 min. with sphinganine (40 μM) prior to addition of 1 μM PMA (final concentration), with which they were incubated for an additional 15 min. The reaction was stopped by addition of an equal volume of boiling SDS dissociation buffer (9% SDS, 1% mercaptoethanol, 15% glycerol, 30 mM Tris, pH 7.8). The samples were run on a 12% SDS-polyacrylamide gel using the method of Rudolph and Krueger (Adv. Cyclic Nucleotide Res. 101, 107-133, 1979). The gels were dried using a Bio-Rad model 2400 Gel Slab Dryer. Autoradiography was performed on the dried gels using Kodak X-omat X-ray film and Dupont Cronex intensifying screens. The gels were exposed for 12 hrs at -70° C.
Alternatively, neutrophils were preincubated as described above using 0.1 mCi of ^32 P labeled phosphate. The cells were broken by 5 min. of sonication using an Ultramet III waterbath sonicator, and 5% (final concentration) trichloroacetic acid was added to each sample. […] The precipitate was filtered and washed extensively using an Amicon filtration system and counted using a Beckman LS7000 scintillation counter.

HL-60 cells [7] = test: HL-60 cell growth and viability; format: cell-based, human; details: Homo sapiens, HL-60, 24 h, read-out: inhibition of growth of HL-60 cells
Experimental: (§2) The HL-60 cells (obtained from the American Type Culture Collection, ATCC CCL240) were grown at 37° as a suspension culture in 175 cm^2 Nunc tissue culture flasks (Vangard International, Neptune, N.J.). The cells were subcultured at a density of 0.25×10^6 cells/ml and used between passage numbers 30 and 40.
as §1

[8] = HL-60 cell growth and viability; format: cell-based, human; details: human, hl-60 cells, 8 nM PMA, 24 h
Experimental: as §2, §1

[9] = test system: phorbol ester binding site (protein kinase C) of neutrophils; test: Cellular [3H]-phorbol dibutyrate binding in neutrophils; set-up: species or system human; details: 50 μM; 15 min
Experimental: Neutrophils (1×10^8 cells/ml) were preincubated with the indicated concentration of sphinganine, palmitic acid, or ceramide for five minutes prior to the addition of 50 nM (final concentration) of [^3 H]-phorbol dibutyrate (specific activity of 8.3 Ci/mMole). The cells were incubated an additional 15 min. in a shaking waterbath at 37° C. The incubation mixtures were filtered using an Amicon filtration manifold model VFM-III and washed 5 times with 5 mls of ice-cold PBS-glucose. The filters were counted using a Beckman LS7000 scintillation counter.

protein kinase C = test: Triton X-100 mixed micellar assay for protein kinase C activity; format: biochemical, rat; details: mixed micellar assay
Experimental: Protein kinase C was partially purified from rat brain as described by Hanrun et al (J. Biol. Chem., 260, 10043, 1985), which is hereby incorporated by reference.
Protein kinase C was assayed with Triton X-100 mixed micelles as described by Hanrun et al, (ibid.), Sphingosine was dried down with the lipid cofactors.

## CC1CNCCN1S(=O)(=O)c1cccc2cnccc12 (stereo not shown) [H-7]
Human neutrophils [1]
  inhibition of the respiratory burst in human neutrophils: incapable of inhibiting

## NCCNS(=O)(=O)c1cccc2cnccc12 [H-9]
Human neutrophils [1]
  inhibition of the respiratory burst in human neutrophils: incapable of inhibiting

## CCCCCCCCCCCCCC(=O)O[C@@H]1[C@@H](C)[C@@]2(O)[C@@H](C=C(CO)C[C@]3(O)C(=O)C(C)=C[C@@H]23)[C@@H]2C(C)(C)[C@]12OC(C)=O [PMA, Phorbol 12-myristate 13-acetate, reference compound]
Human neutrophils [2]; activator alone
  RATE of oxygen consumption, NO SPHINGANINE: 4.3 nmols O2 consumed/min/10^6 cells
HL-60 cells [3]; 8 nM PMA alone, 24 h
  number of adherent cells: 0.76 ×10^5
HL-60 cells [3]; 8 nM PMA, 0 μM sphinganine, 72 h
  Adherent cells (%): 96%
HL-60 cells [3]; 8 nM PMA, 24 h
  % Adherence: 61% and 61.3 ± 1.0%
HL-60 cells [4]; 24 h
  Acid phosphatase activity, Adherent: 0.52 ± 0.01 nmol/h/dish
  Acid phosphatase activity, Suspended: 0.11 ± 0.05 nmol/h/dish
  Adherence (% of total): 83 % of total
HL-60 cells [4]; 72 h
  Acid phosphatase activity, Adherent: 2.20 ± 0.09 nmol/h/dish
  Acid phosphatase activity, Adherent (%): 98%
  Acid phosphatase activity, Suspended: 0.05 ± 0.01 nmol/h/dish
HL-60 cells [5]; adherent cells
  Acid phosphatase: 0.60 nmol/h/105 cells
HL-60 cells [5]; suspended cells
  Acid phosphatase: 0.30 nmol/h/105 cells
Human neutrophils [6]
  [32P]-phosphate incorporation into TCA-precipitable material: 4912 COUNTS PER MINUTE
HL-60 cells [7]
  inhibition at 0.008 µM: 70%
[8]; 0 μM sphinganine, read-out: Percent viability of suspended cells
  viability at 24 h, 0.008 µM: 60%
[8]; read-out: % Viability
  viability at 24 h, 0.008 µM: 80%

## CCCCCCCCCCCCCCCC(=O)O [Palmitic acid, reference compound]
Human neutrophils [2]; Homo sapiens, Neutrophil
  IC50: > 100 µM
[9]
  displacement of [3H]-phorbol dibutyrate: 3%

## Ceramide
Human neutrophils [2]
  IC50: > 100 µM
HL-60 cells [3]; 8 nM PMA
  inhibition of PMA-induced attachment: not inhibitory
[9]
  displacement of [3H]-phorbol dibutyrate: 18%
Protein kinase C
  inhibition of protein kinase C (specificity): did not activate or inhibit
Protein kinase C; listed as ceramide
  inhibition of protein kinase C (specificity): without effect; also recorded: not to be inhibitors
